Source: patent publication US9018208B2, “Heterocycles as potassium channel modulators” (Icagen Inc., priority 2007, dated 2015)

What follows are compounds tested on SH-SY5Y M-currents (KCNQ2, KCNQ3 and KCNQ5) (assay: SH-SY5Y native cell line FLIPR assay (voltage-sensitive dye DiBAC)). Conditions: FLIPR assay, SH-SY5Y native cell line; Table 2; read-out: SH-SY5Y EC50.
Assay type: cell-based, mouse neuroblastoma, rat glioma hybrid cell line
Procedure, shortened: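 Response is peak DiBAC fluorescence change, normalised to the maximum from a positive control agent, sampled every 30 s over 25 min. Before compound addition, SH-SY5Y cells differentiated with PGE1 plus isomethylbutylxanthine were dye-loaded for 1 h in EBSS with […] DiBAC.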
With O=C(Cc1ccccc1)Nc1nc2ccc(F)cn2c1-c1ccc(F)cc1 [Compound 106, N-(6-fluoro-3-(4-fluorophenyl)imidazo[1,2-a]pyridin-2-yl)-2-phenylacetamide] the EC50 was 500 to 3000 nM. In the case of O=C(CC1CCCC1)Nc1nc2ccc(F)cn2c1-c1ccc(F)cc1 [Compound 107, 2-cyclopentyl-N-(6-fluoro-3-(4-fluorophenyl)imidazo[1,2-a]pyridin-2-yl)acetamide], the EC50 is reported as < 500 nM. Compound O=C(CCC(F)(F)F)Nc1nc2ccc(F)cn2c1-c1ccc(F)cc1 [Compound 108, 4,4,4-trifluoro-N-(6-fluoro-3-(4-fluorophenyl)imidazo[1,2-a]pyridin-2-yl)butanamide] has an EC50 of 500 to 3000 nM. CC(C(=O)Nc1nc2ccc(F)cn2c1-c1ccc(F)cc1)c1ccccc1 (stereo not shown) [Compound 109, N-(6-fluoro-3-(4-fluorophenyl)imidazo[1,2-a]pyridin-2-yl)-2-phenylpropanamide] gave an EC50 of 500 to 3000 nM. Compound CC(C(=O)Nc1nc2cc(C(F)(F)F)ccn2c1-c1ccccc1)c1ccccc1 (stereo not shown) [Compound 110, 2-phenyl-N-(3-phenyl-7-(trifluoromethyl)imidazo[1,2-a]pyridin-2-yl)propanamide] has an EC50 of 500 to 3000 nM. Compound O=C(Cc1ccc(F)cc1)Nc1nc2cc(C(F)(F)F)ccn2c1-c1ccc(F)cc1 [Compound 111, 2-(4-fluorophenyl)-N-(3-(4-fluorophenyl)-7-(trifluoromethyl)imidazo[1,2-a]pyridin-2-yl)acetamide] has an EC50 of 500 to 3000 nM. Work on O=C(Cc1ccccc1)Nc1nc2cc(C(F)(F)F)ccn2c1-c1ccc(F)cc1 [Compound 112, N-(3-(4-fluorophenyl)-7-(trifluoromethyl)imidazo[1,2-a]pyridin-2-yl)-2-phenylacetamide] yielded an EC50 of 500 to 3000 nM. With CC(C)(C)CC(=O)Nc1nc2cc(C(F)(F)F)ccn2c1-c1ccc(F)cc1 [Compound 113, N-(3-(4-fluorophenyl)-7-(trifluoromethyl)imidazo[1,2-a]pyridin-2-yl)-3,3-dimethylbutanamide] the EC50 was 500 to 3000 nM. Compound CC(C(=O)Nc1nc2cc(C(F)(F)F)ccn2c1-c1ccc(F)cc1)c1ccccc1 (stereo not shown) [Compound 114, N-(3-(4-fluorophenyl)-7-(trifluoromethyl)imidazo[1,2-a]pyridin-2-yl)-2-phenylpropanamide] has an EC50 of 500 to 3000 nM. O=C(Cc1ccccc1)Nc1nc2ccc(F)cn2c1-c1ccc(F)cc1F [Compound 115, N-(3-(2,4-difluorophenyl)-6-fluoroimidazo[1,2-a]pyridin-2-yl)-2-phenylacetamide] gave an EC50 of 500 to 3000 nM. Work on CC(C)(C)CC(=O)Nc1nc2ccc(F)cn2c1-c1ccc(F)cc1F [Compound 116, N-(3-(2,4-difluorophenyl)-6-fluoroimidazo[1,2-a]pyridin-2-yl)-3,3-dimethylbutanamide] yielded an EC50 of 500 to 3000 nM. For O=C(Cc1ccc(F)cc1)Nc1nc2ccc(F)cn2c1-c1ccc(F)cc1F [Compound 117, N-(3-(2,4-difluorophenyl)-6-fluoroimidazo[1,2-a]pyridin-2-yl)-2-(4-fluorophenyl)acetamide], the EC50 was 500 to 3000 nM. Compound O=C(CC1CCCC1)Nc1nc2ccc(F)cn2c1-c1ccc(F)cc1F [Compound 118, 2-cyclopentyl-N-(3-(2,4-difluorophenyl)-6-fluoroimidazo[1,2-a]pyridin-2-yl)acetamide] has an EC50 of 500 to 3000 nM. In the case of O=C(Cc1ccccc1)Nc1nc2ccc(C(F)(F)F)cn2c1-c1ccc(F)cc1 [Compound 119, N-(3-(4-fluorophenyl)-6-(trifluoromethyl)imidazo[1,2-a]pyridin-2-yl)-2-phenylacetamide], the EC50 is reported as < 500 nM. CC(C)(C)CC(=O)Nc1nc2ccc(C(F)(F)F)cn2c1-c1ccc(F)cc1 [Compound 120, N-(3-(4-fluorophenyl)-6-(trifluoromethyl)imidazo[1,2-a]pyridin-2-yl)-3,3-dimethylbutanamide] was tested, and the EC50 was < 500 nM. With O=C(Cc1ccc(F)cc1)Nc1nc2ccc(C(F)(F)F)cn2c1-c1ccc(F)cc1 [Compound 121, 2-(4-fluorophenyl)-N-(3-(4-fluorophenyl)-6-(trifluoromethyl)imidazo[1,2-a]pyridin-2-yl)acetamide] the EC50 was < 500 nM. In the case of O=C(Cc1ccc(F)cc1)Nc1nc2cc(C(F)(F)F)ccn2c1-c1ccc(F)cc1F [Compound 122, N-(3-(2,4-difluorophenyl)-7-(trifluoromethyl)imidazo[1,2-a]pyridin-2-yl)-2-(4-fluorophenyl)acetamide], the EC50 is reported as 500 to 3000 nM. CC(C)(C)CC(=O)Nc1nc2cc(C(F)(F)F)ccn2c1-c1ccc(F)cc1F [Compound 123, N-(3-(2,4-difluorophenyl)-7-(trifluoromethyl)imidazo[1,2-a]pyridin-2-yl)-3,3-dimethylbutanamide] showed an EC50 of 500 to 3000 nM. In the case of O=C(Cc1ccccc1)Nc1nc2cc(C(F)(F)F)ccn2c1-c1ccc(F)cc1F [Compound 124, N-(3-(2,4-difluorophenyl)-7-(trifluoromethyl)imidazo[1,2-a]pyridin-2-yl)-2-phenyl acetamide], the EC50 is reported as 500 to 3000 nM. O=C(CC1CCCC1)Nc1nc2cc(C(F)(F)F)ccn2c1-c1ccc(F)cc1F [Compound 125, 2-cyclopentyl-N-(3-(2,4-difluorophenyl)-7-(trifluoromethyl)imidazo[1,2-a]pyridin-2-yl)acetamide] was tested, and the EC50 was 500 to 3000 nM. Work on O=C(Cc1ccc(F)cc1)Nc1nc2ccc(F)cn2c1-c1ccc(C(F)(F)F)cc1 [Compound 126, N-(6-fluoro-3-(4-(trifluoromethyl)phenyl)imidazo[1,2-a]pyridin-2-yl)-2-(4-fluorophenyl)acetamide] yielded an EC50 of 500 to 3000 nM. O=C(Cc1ccccc1)Nc1nc2ccc(F)cn2c1-c1ccc(C(F)(F)F)cc1 [Compound 127, N-(6-fluoro-3-(4-(trifluoromethyl)phenyl)imidazo[1,2-a]pyridin-2-yl)-2-phenylacetamide] was tested, and the EC50 was < 500 nM. Work on O=C(CC1CC1)Nc1nc2ccc(F)cn2c1-c1ccc(F)cc1 [Compound 129, 2-cyclopropyl-N-(6-fluoro-3-(4-fluorophenyl)imidazo[1,2-a]pyridin-2-yl)acetamide] yielded an EC50 of 3000 to 10000 nM. CC(C)(C)CC(=O)Nc1nc2ccc(Cl)cn2c1-c1ccc(F)cc1 [Compound 130, N-(6-chloro-3-(4-fluorophenyl)imidazo[1,2-a]pyridin-2-yl)-3,3-dimethylbutanamide] was tested, and the EC50 was < 500 nM. For O=C(Cc1ccc(F)cc1)Nc1nc2ccc(Cl)cn2c1-c1ccc(F)cc1 [Compound 131, N-(6-chloro-3-(4-fluorophenyl)imidazo[1,2-a]pyridin-2-yl)-2-(4-fluorophenyl)acetamide], the EC50 was < 500 nM. With COc1ccc(CC(=O)Nc2nc3ccc(F)cn3c2-c2ccc(F)cc2)cc1 [Compound 132, N-(6-fluoro-3-(4-fluorophenyl)imidazo[1,2-a]pyridin-2-yl)-2-(4-methoxyphenyl)acetamide] the EC50 was 500 to 3000 nM. In the case of CC(C)CC(=O)Nc1nc2ccc(F)cn2c1-c1ccc(F)cc1 [Compound 133, N-(6-fluoro-3-(4-fluorophenyl)imidazo[1,2-a]pyridin-2-yl)-3-methylbutanamide], the EC50 is reported as 500 to 3000 nM. O=C(CCc1ccccc1)Nc1nc2ccc(F)cn2c1-c1ccc(F)cc1 [Compound 134, N-(6-fluoro-3-(4-fluorophenyl)imidazo[1,2-a]pyridin-2-yl)-3-phenylpropanamide] gave an EC50 of 500 to 3000 nM. O=C(Cc1ccc(C(F)(F)F)cc1)Nc1nc2ccc(F)cn2c1-c1ccc(F)cc1 [Compound 135, N-(6-fluoro-3-(4-fluorophenyl)imidazo[1,2-a]pyridin-2-yl)-2-(4-(trifluoromethyl)phenyl)acetamide] showed an EC50 of 500 to 3000 nM. O=C(Cc1ccc(F)cc1F)Nc1nc2ccc(F)cn2c1-c1ccc(F)cc1 [Compound 136, 2-(2,4-difluorophenyl)-N-(6-fluoro-3-(4-fluorophenyl)imidazo[1,2-a]pyridin-2-yl)acetamide] showed an EC50 of 500 to 3000 nM. N#Cc1ccc(CC(=O)Nc2nc3ccc(F)cn3c2-c2ccc(F)cc2)cc1 [Compound 137, 2-(4-cyanophenyl)-N-(6-fluoro-3-(4-fluorophenyl)imidazo[1,2-a]pyridin-2-yl)acetamide] gave an EC50 of 500 to 3000 nM. In the case of O=C(CC1CC2CCC1C2)Nc1nc2ccc(F)cn2c1-c1ccc(F)cc1 (stereo not shown) [Compound 138, 2-(bicyclo[2.2.1]heptan-2-yl)-N-(6-fluoro-3-(4-fluorophenyl)imidazo[1,2-a]pyridin-2-yl)acetamide], the EC50 is reported as < 500 nM. In the case of CC(CC(=O)Nc1nc2ccc(F)cn2c1-c1ccc(F)cc1)CC(C)(C)C (stereo not shown) [Compound 139, N-(6-fluoro-3-(4-fluorophenyl)imidazo[1,2-a]pyridin-2-yl)-3,5,5-trimethylhexanamide], the EC50 is reported as < 500 nM. Compound O=C(Cc1ccc(F)cc1Cl)Nc1nc2ccc(F)cn2c1-c1ccc(F)cc1 [Compound 140, 2-(2-chloro-4-fluorophenyl)-N-(6-fluoro-3-(4-fluorophenyl)imidazo[1,2-a]pyridin-2-yl)acetamide] has an EC50 of 3000 to 10000 nM. O=C(Cc1c(F)cccc1Cl)Nc1nc2ccc(F)cn2c1-c1ccc(F)cc1 [Compound 141, 2-(2-chloro-6-fluorophenyl)-N-(6-fluoro-3-(4-fluorophenyl)imidazo[1,2-a]pyridin-2-yl)acetamide] showed an EC50 of 3000 to 10000 nM. In the case of Cc1ccc(CC(=O)Nc2nc3ccc(F)cn3c2-c2ccc(F)cc2)cc1 [Compound 143, N-(6-fluoro-3-(4-fluorophenyl)imidazo[1,2-a]pyridin-2-yl)-2-p-tolylacetamide], the EC50 is reported as < 500 nM. CC(CC(=O)Nc1nc2ccc(F)cn2c1-c1ccc(F)cc1)C(F)(F)F (stereo not shown) [Compound 144, 4,4,4-trifluoro-N-(6-fluoro-3-(4-fluorophenyl)imidazo[1,2-a]pyridin-2-yl)-3-methylbutanamide] showed an EC50 of 500 to 3000 nM. With O=C(Cc1ccc(Cl)cc1)Nc1nc2ccc(F)cn2c1-c1ccc(F)cc1 [Compound 145, 2-(4-chlorophenyl)-N-(6-fluoro-3-(4-fluorophenyl)imidazo[1,2-a]pyridin-2-yl)acetamide] the EC50 was 500 to 3000 nM. O=C(Nc1nc2ccc(F)cn2c1-c1ccc(F)cc1)OCc1ccccc1 [Compound 146, benzyl 6-fluoro-3-(4-fluorophenyl)imidazo[1,2-a]pyridin-2-ylcarbamate] was tested, and the EC50 was < 500 nM. Work on CCC(C)CC(=O)Nc1nc2ccc(F)cn2c1-c1ccc(F)cc1 (stereo not shown) [Compound 147, N-(6-fluoro-3-(4-fluorophenyl)imidazo[1,2-a]pyridin-2-yl)-3-methylpentanamide] yielded an EC50 of 500 to 3000 nM.
